Measured values: patent US7951815B2, “Substituted 1,4,8-triazaspiro [4,5]decan-2-one compounds” (Gruenenthal GmbH, priority 2004, dated 2011)
Values joined by “and” are separate entries in the source; they are usually repeats but may differ in a detail not shown here. Equal entries are not always repeated.

Tests used:
[1] = tested on: batrachotoxin (BTX) binding site of the sodium channel; experiment: Affinity to the batrachotoxin (BTX) binding site of the sodium channel; details: rat cerebrocortex synaptosomes, test concentration not given
[2] = biological target: human μ-opioid receptor (Homo sapiens, UniProt P35372); experiment: Affinity to the human μ-opioid receptor ([3H]-naloxone displacement); details: Table II; 1 μM; [3H]-naloxone
Method: The receptor affinity to the human μ-opioid receptor is determined in a homogeneous batch in microtiter plates. For this purpose, dilution series of the substances to be tested are incubated at room temperature for 90 minutes in a total volume of 250 μL with a receptor membrane preparation (15-40 μg of protein/250 μL of incubation batch) of CHO-K1 cells which express the human μ-opioid receptor (RB-HOM receptor membrane preparation supplied by NEN, Zaventem, Belgium) in the presence of 1 nmol/L of the radioactive ligand [^3H]-naloxone (NET 719, supplied by NEN, Zaventem, Belgium), and of 1 mg of WGA-SPA beads (wheat germ agglutinin SPA beads supplied by Amersham/Pharmacia, Freiburg, Germany). As incubation buffer, 50 mmol/L of tris HCl supplemented with 0.05% (weight/volume) of sodium azide and with 0.06% (weight/volume) of bovine serum albumin is used. For determination of the nonspecific binding, 25 μmol/L of naloxone are added. On completion of the ninety-minute incubation time, the microtiter plates are centrifuged for 20 minutes at 1000 g and the radioactivity is measured in a β-counter (Microbeta-Trilux, supplied by PerkinElmer Wallac, Freiburg, Germany).
Based on the percentage displacement produced by different concentrations of the test substances, IC50 inhibitory concentrations are calculated which cause a 50 percent displacement of the radioactive ligand. As a result of recalculation using the Cheng-Prusoff relationship, the Ki values for the test substances can be obtained, as described in the publication of Y. Cheng, W. H. Prusoff, 1973, Biochem. Pharmacol., 22, pages 3099-3108.

[3] = biological target: T1, 5-HT transporter (Rattus norvegicus, UniProt P31652); experiment: Inhibition of 5-HT uptake in rat brain synaptosomes; format: biochemical; details: rat, 1 μM; for inhibition at 1 µM: read-out: Uptake 5-HT, % inhibition
T1 construct: synaptosomes of rat brain areas are freshly isolated; from tissue; host or cells: rat brain synaptosomes (P2 fraction) from marrow and pons

[4] = tested on: male NMRI mice; experiment: Analgesic test using the phenylquinone-induced writhing test on mice; format: in vivo; details: 10 mg/kg intravenous
Method: The analysis of analgesic activity is carried out using the phenylquinone-induced writhing assay in mice, modified as described in the article by I. C. Hendershot and J. Forsaith ((1959) in J. Pharmacol. Exp. Ther. 125, 237-240).
For the present purpose, male NMRI mice are used having a weight of from 25 to 30 g. Groups of 10 animals per substance dose receive, 10 minutes after an intravenous dose of test substances, an intraperitoneal administration of 0.3 ml/mouse of a 0.02% strength aqueous solution of phenylquinone (phenylbenzoquinone, obtainable from Sigma, Deisenhofen; solution produced with the addition of 5% of ethanol and storage in a water bath at 45° C.). The animals are placed individually in observation cages. Using a pushbutton counter, the number of pain-induced stretching movements (so-called writhing reactions=straightening of the body accompanied by stretching of the rear extremities) was counted over a period of from 5 to 20 minutes following the administration of phenylquinone. The control is provided by animals receiving only physiological saline. All substances are tested using the standard dosage of 10 mg/kg.

[5] = tested on: NA transporter; experiment: Inhibition of noradrenaline uptake in rat brain synaptosomes; format: biochemical; details: Table III

T1 sequence (P31652 whole entry): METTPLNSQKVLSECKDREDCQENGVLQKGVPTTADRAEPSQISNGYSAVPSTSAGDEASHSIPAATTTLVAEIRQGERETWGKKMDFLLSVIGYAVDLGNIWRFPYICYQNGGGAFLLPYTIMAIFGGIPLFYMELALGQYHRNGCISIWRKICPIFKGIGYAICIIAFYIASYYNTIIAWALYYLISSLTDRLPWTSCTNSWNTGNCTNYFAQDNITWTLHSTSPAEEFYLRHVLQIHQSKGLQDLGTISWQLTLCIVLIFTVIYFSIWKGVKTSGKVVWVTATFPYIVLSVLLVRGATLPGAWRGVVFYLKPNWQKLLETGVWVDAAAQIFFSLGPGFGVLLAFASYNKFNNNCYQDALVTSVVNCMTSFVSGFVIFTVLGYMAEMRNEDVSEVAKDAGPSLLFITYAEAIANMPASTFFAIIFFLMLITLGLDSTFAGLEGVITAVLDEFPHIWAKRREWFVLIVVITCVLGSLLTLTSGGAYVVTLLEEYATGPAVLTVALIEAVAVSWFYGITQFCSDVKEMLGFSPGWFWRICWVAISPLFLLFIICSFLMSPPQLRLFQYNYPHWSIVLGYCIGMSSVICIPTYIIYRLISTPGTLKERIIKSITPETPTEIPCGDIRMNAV
human μ-opioid receptor, sequence (P35372 whole entry): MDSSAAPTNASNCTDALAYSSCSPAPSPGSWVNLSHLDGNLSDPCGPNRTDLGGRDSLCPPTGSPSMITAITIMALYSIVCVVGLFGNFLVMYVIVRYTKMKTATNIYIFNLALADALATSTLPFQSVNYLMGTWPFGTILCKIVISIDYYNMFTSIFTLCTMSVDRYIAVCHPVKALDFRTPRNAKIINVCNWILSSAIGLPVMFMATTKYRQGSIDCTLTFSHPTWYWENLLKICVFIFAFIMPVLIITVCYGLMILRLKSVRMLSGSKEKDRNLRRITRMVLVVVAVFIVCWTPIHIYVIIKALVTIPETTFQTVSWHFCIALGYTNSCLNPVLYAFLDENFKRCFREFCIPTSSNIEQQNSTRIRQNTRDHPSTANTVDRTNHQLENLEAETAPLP

| SMILES | inhibition at 1 µM ([3]; Table III) [%] | Uptake (NA), rat, 10 μM, % inhibition [5] [%] | BTX inhibition ([1]; Table III) | further results |
| --- | --- | --- | --- | --- |
| Cl.O=C1NC2(CCN(C(=O)c3ccc(Cl)cc3)CC2)N[C@H]1Cc1ccccc1 (racemic) [Example 10, 3-(S,R)-Benzyl-8-(4-chlorobenzoyl)-1,4,8-triazaspiro[4,5]decan-2-one hydrochloride] |  |  |  | BTX inhibition ([1]; Table II): 53; μ (Naloxone), 1 μM, % inhibition [2]: 94% |
| Cl.O=C(c1ccc(Cl)cc1)N1CCC2(CC1)N[C@@H](Cc1ccccc1)C(=O)N2Cc1ccccc1 (racemic) [Example 29, 1,3-(S,R)-dibenzyl-8-(4-chlorobenzoyl)-1,4,8-triazaspiro[4,5]decan-2-one hydrochloride] |  |  |  | Uptake 5-HT, rat, 1 μM, % inhibition ([3]; Table II, hydrochloride): 80% and 45%; BTX inhibition ([1]; Table II, hydrochloride): 65 and 60; μ (Naloxone), 1 μM, % inhibition [2]: 38% |
| CCC(CC)C(=O)N1CCC2(CC1)N[C@@H](Cc1ccccc1)C(=O)N2Cc1ccc(F)cc1.Cl (racemic) [Example 31, 3-(S,R)-benzyl-8-(2-ethylbutyryl)-1-(4-fluorobenzyl)-1,4,8-triazaspiro[4,5]decan-2-one hydrochloride] |  |  |  | % Inhibition of the writhing reaction (Dosage in mg/kg intravenous) [4]: 36 (10) %; Uptake 5-HT, rat, 1 μM, % inhibition ([3]; Table II): 34%; BTX inhibition ([1]; Table II): 61 |
| CCC(CC)C(=O)N1CCC2(CC1)NC(=O)[C@H](Cc1ccccc1)N2.Cl [Example 2, 3-(S)-Benzyl-8-(2-ethylbutyryl)-1,4,8-triazaspiro[4,5]decan-2-one hydrochloride] |  |  |  | % Inhibition of the writhing reaction (Dosage in mg/kg intravenous) [4]: 51 (10) % |
| Cl.O=C(c1ccc(C(F)(F)F)c(F)c1)N1CCC2(CC1)N[C@@H](Cc1ccccc1)C(=O)N2Cc1ccccc1 [Example 53, 1,3-(S)-dibenzyl-8-(3-fluoro-4-trifluoromethylbenzoyl)-1,4,8-triazaspiro[4,5]decan-2-one hydrochloride] |  |  |  | % Inhibition of the writhing reaction (Dosage in mg/kg intravenous) [4]: 30 (10) %; BTX inhibition ([1]; Table II): 48 |
| Cl.O=C(COc1ccc(Cl)cc1)N1CCC2(CC1)N[C@@H](Cc1ccccc1)C(=O)N2Cc1ccccc1 [Example 55, 1,3-(S)-dibenzyl-8-[2-(4-chlorophenoxy)acetyl]-1,4,8-triazaspiro[4,5]decan-2-one hydrochloride] |  |  |  | % Inhibition of the writhing reaction (Dosage in mg/kg intravenous) [4]: 45 (10) %; BTX inhibition ([1]; Table II): 64 |
| CN(C)c1cccc(C(=O)N2CCC3(CC2)NC(Cc2ccccc2)C(=O)N3Cc2ccccc2)c1 (stereo not drawn) [Example 99, 1,3-Dibenzyl-8-(3-dimethylaminobenzoyl)-1,4,8-triazaspiro[4,5]decan-2-one] | 79 | 42 | 66 |  |
| C#CCN1C(=O)C(CC(C)C)NC12CCN(C(=O)COc1ccc(Cl)cc1)CC2 (stereo not drawn) [Example 104, 8-[2-(4-Chlorophenoxy)acetyl]-3-isobutyl-1-prop-2-ynyl-1,4,8-triazaspiro[4,5]decan-2-one] | 48 | 36 | 41 |  |
| CC(C)CC1NC2(CCN(C(=O)c3cccc(N(C)C)c3)CC2)N(Cc2ccccc2C#N)C1=O (stereo not drawn) [Example 111, 2-[8-(3-Dimethylaminobenzoyl)-3-isobutyl-2-oxo-1,4,8-triazaspiro[4,5]dec-1-ylmethyl]benzonitrile] | 58 | 38 | 42 |  |
| CC(C)CC1NC2(CCN(C(=O)c3cccnc3Cl)CC2)N(Cc2ccc(F)cc2)C1=O (stereo not drawn) [Example 118, 8-(2-Chloropyridin-3-carbonyl)-1-(4-fluorobenzyl)-3-isobutyl-1,4,8-triazaspiro[4,5]decan-2-one] | 38 | 30 | 44 |  |
| CN1C(=O)C(Cc2ccccc2)NC12CCN(C(=O)CC(C)(C)C)CC2 (stereo not drawn) [Example 126, 3-Benzyl-8-(3,3-dimethylbutyryl)-1-methyl-1,4,8-triazaspiro[4,5]decan-2-one] |  | 44 | 34 |  |
| CN1C(=O)C(Cc2ccccc2)NC12CCN(C(=O)COCc1ccccc1)CC2 (stereo not drawn) [Example 141, 3-Benzyl-8-(2-benzyloxyacetyl)-1-methyl-1,4,8-triazaspiro[4,5]decan-2-one] |  | 36 | 45 |  |
| CCOC(=O)CN1C(=O)C(Cc2ccccc2)NC12CCN(C(=O)c1ccc(NC(C)=O)cc1)CC2 (stereo not drawn) [Example 256, Ethyl [8-(4-acetylaminobenzoyl)-3-benzyl-2-oxo-1,4,8-triazaspiro[4,5]dec-1-yl]acetate] | 94 | 57 | 48 |  |
| CC(C)CC1NC2(CCN(C(=O)c3ccc4c(c3)OCO4)CC2)N(Cc2c(Cl)cccc2Cl)C1=O (stereo not drawn) [Example 264, 8-(Benzo[1,3]dioxole-5-carbonyl)-1-(2,6-dichlorobenzyl)-3-isobutyl-1,4,8-triazaspiro[4,5]decan-2-one] |  | 36 | 63 |  |
| C=CCN1C(=O)C(C(C)C)NC12CCN(C(=O)c1ccc(-c3ccccc3)cc1)CC2 (stereo not drawn) [Example 265, 1-Allyl-8-(biphenyl-4-carbonyl)-3-isopropyl-1,4,8-triazaspiro[4,5]decan-2-one] |  | 32 | 34 |  |
| CCOC(=O)CN1C(=O)C(Cc2ccccc2)NC12CCN(C(=O)c1ccc(-c3ccccc3)cc1)CC2 (stereo not drawn) [Example 266, Ethyl [3-benzyl-8-(biphenyl-4-carbonyl)-2-oxo-1,4,8-triazaspiro[4,5]dec-1-yl]acetate] | 94 | 38 | 57 |  |
| CCOC(=O)CCC(=O)N1CCC2(CC1)NCC(=O)N2Cc1ccccc1F [Example 270, Ethyl 4-[1-(2-fluorobenzyl)-2-oxo-1,4,8-triazaspiro[4,5]dec-8-yl]-4-oxo-butanate] | 31 | 37 | 33 |  |
| COc1ccccc1C(=O)N1CCC2(CC1)NC(Cc1ccccc1)C(=O)N2Cc1ccccc1F (stereo not drawn) [Example 274, 3-Benzyl-1-(2-fluorobenzyl)-8-(2-methoxybenzoyl)-1,4,8-triazaspiro[4,5]decan-2-one] | 97 | 64 | 85 |  |
| CCOc1ccccc1C(=O)N1CCC2(CC1)NCC(=O)N2Cc1ccccc1F [Example 280, 8-(2-Ethoxybenzoyl)-1-(2-fluorobenzyl)-1,4,8-triazaspiro[4,5]decan-2-one] | 60 | 35 | 30 |  |
| C=CCCC(=O)N1CCC2(CC1)NCC(=O)N2Cc1ccccc1F [Example 287, 1-(2-Fluorobenzyl)-8-pent-4-enoyl-1,4,8-triazaspiro[4,5]decan-2-one] | 41 | 41 | 32 |  |
| C=CCN1C(=O)C(CCSC)NC12CCN(C(=O)c1cccnc1SC)CC2 (stereo not drawn) [Example 290, 1-Allyl-3-(2-methylsulfanylethyl)-8-(2-methylsulfanylpyridin-3-carbonyl)-1,4,8-triazaspiro[4,5]decan-2-one] |  | 31 | 30 |  |
| Cc1cc(C(=O)N2CCC3(CC2)NC(CC(C)C)C(=O)N3Cc2c(Cl)cccc2Cl)c(C)o1 (stereo not drawn) [Example 295, 1-(2,6-Dichlorobenzyl)-8-(2,5-dimethylfuran-3-carbonyl)-3-isobutyl-1,4,8-triazaspiro[4,5]decan-2-one] |  | 36 | 63 |  |
| CCOC(=O)CN1C(=O)C(CCSC)NC12CCN(C(=O)c1ccc(C(C)(C)C)cc1)CC2 (stereo not drawn) [Example 297, Ethyl [8-(4-tert-butylbenzoyl)-3-(2-methylsulfanylethyl)-2-oxo-1,4,8-triazaspiro[4,5]dec-1-yl]acetate] |  | 32 | 36 |  |
| CSCCC1NC2(CCN(C(=O)c3cccnc3Oc3ccccc3)CC2)N(Cc2ccccc2[N+](=O)[O-])C1=O (stereo not drawn) [Example 298, 3-(2-Methylsulfanylethyl)-1-(2-nitrobenzyl)-8-(2-phenoxypyridin-3-carbonyl)-1,4,8-triazaspiro[4,5]decan-2-one] | 34 | 30 | 48 |  |
| O=C(c1ccc2nonc2c1)N1CCC2(CC1)NCC(=O)N2Cc1ccccc1F [Example 304, 8-(Benzo[1,2,5]oxadiazole-5-carbonyl)-1-(2-fluorobenzyl)-1,4,8-triazaspiro[4,5]decan-2-one] | 34 | 37 | 33 |  |
| CCOC(=O)C(C)(C)C(=O)N1CCC2(CC1)NC(CCSC)C(=O)N2Cc1ccccc1[N+](=O)[O-] (stereo not drawn) [Example 331, Ethyl 1,1-dimethyl-2-[3-(2-methylsulfanylethyl)-1-(2-nitrobenzyl)-2-oxo-1,4,8-triazaspiro[4,5]dec-8-yl]-2-oxo-acetate] |  | 38 | 46 | Uptake 5-HT, rat, 1 μM, % inhibition ([3]; Table III): 58% |
